Read-outs that look alike come from different tables or passages of the source.
Assays:
[1] = Observed pharmacokinetics in rats after oral SPC (previous study); assay type: in vivo, rat; settings: p.o. SPC
[2] = Verification pharmacokinetic experiment in rats, SPC 60 g crude drug/kg by gavage, UFLC-MS/MS, DAS 2.0; assay type: in vivo, rat
Procedure, shortened: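 Rats received SPC suspension at 60 g crude drug/kg by gavage. Orbital blood was taken at 0.083–12 h into heparin, and plasma 3′-methoxydaidzein, 8-O-methylretusin, daidzin and isolariciresinol were measured by UFLC-MS/MS (C18, MRM, carbamazepine internal standard). PK parameters were calculated from concentration-time curves.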

Caco-2 cell monolayer = system: Caco-2 cell monolayer; design: method as in PMID 36680806, PMID 26501241; settings: Caco-2 cell monolayer model; cited from earlier work
[3] = design: method as in PMID 34303214; settings: rats, p.o. SPC 30 g crude drug/kg; doses of 1-4: 0.062, 0.11, 0.71, 1.31 mg/kg; cited from earlier work
[4] = compartment model parameters, DAS 2.0, rats p.o. SPC 60 g crude drug/kg, Mean, 5 rats
[5] = statistical moment parameters, DAS 2.0, rats p.o. SPC 60 g crude drug/kg, Mean, 5 rats
[6] = statistical moment parameters, DAS 2.0, rats p.o. SPC 60 g crude drug/kg, Mean, 5 rats, in µg·h²/mL

time of slight secondary absorption peak [1]: 6 h
K10 [2, 4]: 0.474 h⁻¹
K12 [2, 4]: 0.207 h⁻¹
K21 [2, 4]: 0.135 h⁻¹
Ka [2, 4]: 4.239 h⁻¹
Tlag [2, 4]: 0 h
V1/F [2, 4]: 12.821 L/kg
t1/2Ka [2, 4]: 11.1 min
t1/2α [2, 4]: 1.009 h
concentration at 0.083 h ([2]; rat, plasma, oral, time 0.083 h, rats p.o. SPC 60 g crude drug/kg, doses of 1-4: 0.124, 0.22, 1.4, 2.62 mg/kg, 5 rats): 2.98 ng/mL
concentration at 0.25 h ([2]; rat, plasma, oral, time 0.25 h, rats p.o. SPC 60 g crude drug/kg, doses of 1-4: 0.124, 0.22, 1.4, 2.62 mg/kg, 5 rats): 5.52 ng/mL
concentration at 0.5 h ([2]; rat, plasma, oral, time 0.5 h, rats p.o. SPC 60 g crude drug/kg, doses of 1-4: 0.124, 0.22, 1.4, 2.62 mg/kg, 5 rats): 7.09 ng/mL
concentration at 0.75 h ([2]; rat, plasma, oral, time 0.75 h, rats p.o. SPC 60 g crude drug/kg, doses of 1-4: 0.124, 0.22, 1.4, 2.62 mg/kg, 5 rats): 6.16 ng/mL
concentration at 1 h ([2]; rat, plasma, oral, time 1 h, rats p.o. SPC 60 g crude drug/kg, doses of 1-4: 0.124, 0.22, 1.4, 2.62 mg/kg, 5 rats): 5.77 ng/mL
concentration at 1.5 h ([2]; rat, plasma, oral, time 1.5 h, rats p.o. SPC 60 g crude drug/kg, doses of 1-4: 0.124, 0.22, 1.4, 2.62 mg/kg, 5 rats): 5.11 ng/mL
concentration at 2 h ([2]; rat, plasma, oral, time 2 h, rats p.o. SPC 60 g crude drug/kg, doses of 1-4: 0.124, 0.22, 1.4, 2.62 mg/kg, 5 rats): 2.89 ng/mL
concentration at 3 h ([2]; rat, plasma, oral, time 3 h, rats p.o. SPC 60 g crude drug/kg, doses of 1-4: 0.124, 0.22, 1.4, 2.62 mg/kg, 5 rats): 1.75 ng/mL
concentration at 4 h ([2]; rat, plasma, oral, time 4 h, rats p.o. SPC 60 g crude drug/kg, doses of 1-4: 0.124, 0.22, 1.4, 2.62 mg/kg, 5 rats): 1.46 ng/mL
concentration at 6 h ([2]; rat, plasma, oral, time 6 h, rats p.o. SPC 60 g crude drug/kg, doses of 1-4: 0.124, 0.22, 1.4, 2.62 mg/kg, 5 rats): 0.553 ng/mL
concentration at 8 h ([2]; rat, plasma, oral, time 8 h, rats p.o. SPC 60 g crude drug/kg, doses of 1-4: 0.124, 0.22, 1.4, 2.62 mg/kg, 5 rats): 0.582 ng/mL
concentration at 12 h ([2]; rat, plasma, oral, time 12 h, rats p.o. SPC 60 g crude drug/kg, doses of 1-4: 0.124, 0.22, 1.4, 2.62 mg/kg, 5 rats): 0.197 ng/mL
AUC(0-t) ([2]; rat, plasma, po, 0.124 mg/kg, compartment model parameters, DAS 2.0, rats p.o. SPC 60 g crude drug/kg, Mean, 5 rats, read-out: AUC(0-t)): 19.1 ng·h/mL
AUC(0-inf) ([2]; rat, plasma, po, 0.124 mg/kg, compartment model parameters, DAS 2.0, rats p.o. SPC 60 g crude drug/kg, Mean, 5 rats, read-out: AUC(0-∞)): 20.5 ng·h/mL
CL/F ([2]; rat, plasma, po, 0.124 mg/kg, compartment model parameters, DAS 2.0, rats p.o. SPC 60 g crude drug/kg, Mean, 5 rats, read-out: CL/F (converted)): 101 mL/min/kg
half-life ([2]; rat, plasma, po, 0.124 mg/kg, compartment model parameters, DAS 2.0, rats p.o. SPC 60 g crude drug/kg, Mean, 5 rats, read-out: t1/2β (converted)): 865 min
AUC(0-t) ([2]; rat, plasma, po, 0.124 mg/kg, statistical moment parameters, DAS 2.0, rats p.o. SPC 60 g crude drug/kg, Mean, 5 rats, read-out: AUC(0-t)): 19.1 ng·h/mL
AUC(0-inf) ([2]; rat, plasma, po, 0.124 mg/kg, statistical moment parameters, DAS 2.0, rats p.o. SPC 60 g crude drug/kg, Mean, 5 rats, read-out: AUC(0-∞)): 20 ng·h/mL
CL/F ([2]; rat, plasma, po, 0.124 mg/kg, statistical moment parameters, DAS 2.0, rats p.o. SPC 60 g crude drug/kg, Mean, 5 rats, read-out: CLz/F (converted)): 103 mL/min/kg
Cmax ([2]; rat, plasma, po, 0.124 mg/kg, statistical moment parameters, DAS 2.0, rats p.o. SPC 60 g crude drug/kg, Mean, 5 rats, read-out: Cmax): 7.18 ng/mL
MRT last ([2]; rat, plasma, po, 0.124 mg/kg, statistical moment parameters, DAS 2.0, rats p.o. SPC 60 g crude drug/kg, Mean, 5 rats, read-out: MRT(0-t)): 2.77 h
MRT inf ([2]; rat, plasma, po, 0.124 mg/kg, statistical moment parameters, DAS 2.0, rats p.o. SPC 60 g crude drug/kg, Mean, 5 rats, read-out: MRT(0-∞)): 3.44 h
Tmax ([2]; rat, plasma, po, 0.124 mg/kg, statistical moment parameters, DAS 2.0, rats p.o. SPC 60 g crude drug/kg, Mean, 5 rats, read-out: Tmax): 33 min
Vd/F ([2]; rat, plasma, po, 0.124 mg/kg, statistical moment parameters, DAS 2.0, rats p.o. SPC 60 g crude drug/kg, Mean, 5 rats, read-out: Vz/F): 25.9 L/kg
half-life ([2]; rat, plasma, po, 0.124 mg/kg, statistical moment parameters, DAS 2.0, rats p.o. SPC 60 g crude drug/kg, Mean, 5 rats, read-out: t1/2z (converted)): 174 min
AUC(0-t) ([2]; rat, plasma, po, 2.62 mg/kg, rats, p.o. SPC 60 g crude drug/kg, doses of 1-4: 0.124, 0.22, 1.42, 2.62 mg/kg, n = 5, read-out: AUC0→t Val.): 19.1 ng·h/mL
AUC(0-inf) ([2]; rat, plasma, po, 2.62 mg/kg, rats, p.o. SPC 60 g crude drug/kg, doses of 1-4: 0.124, 0.22, 1.42, 2.62 mg/kg, n = 5, read-out: AUC0→∞ Val.): 20 ng·h/mL
Cmax ([2]; rat, plasma, po, 2.62 mg/kg, rats, p.o. SPC 60 g crude drug/kg, doses of 1-4: 0.124, 0.22, 1.42, 2.62 mg/kg, n = 5, read-out: Cmax Val.): 7.2 ng/mL
Tmax ([2]; rat, plasma, po, rats, p.o. SPC 60 g crude drug/kg, doses of 1-4: 0.124, 0.22, 1.42, 2.62 mg/kg, n = 5, read-out: Tmax Val.): 33 min
Cz [2, 5]: 0.202 µg/L
VRT(0-t) [2, 5]: 7.148 h^2
VRT(0-∞) [2, 5]: 16.239 h^2
elimination rate constant [2, 5]: 0.247 h⁻¹
AUMC(0-t) [2, 6]: 52.953
AUMC(0-∞) [2, 6]: 68.893
Compound: COc1cc(-c2coc3cc(O)ccc3c2=O)ccc1O [Constituent 1, 3′-methoxydadizein]
Papp (Caco-2 cell monolayer): 2.2e-06 cm/s
AUC0→t Obs. [3]: 8.4 ng·h/mL
AUC0→∞ Obs. [3]: 9 ng·h/mL
Cmax Obs. [3]: 3.9 ng/mL
Tmax Obs. [3]: 25.2 min

Source: publication PMC11677527, “Predicting Pharmacokinetics of Active Constituents in Spatholobi caulis by Using Physiologically Based Pharmacokinetic Models” (Pharmaceuticals, 2024)
